#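 Step 1: Grow cells in 96-well plates. Step 2: Expose to compound for 48 hours at 5 concentrations. Step 3: Interpolate endpoints linearly; if unreached, use highest concentration. GI50 marks 50% less growth. TGI: concentration producing complete growth inhibition.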
# Experiments:
# Assay in all cases: NCI tumour cell line growth inhibition, 48 h
# [1] = system: SNB-19 CNS
# [2] = system: MDA-MB-231 breast
# [3] = system: HCC-2998 colon
# [4] = system: OVCAR-8 ovarian
# [5] = system: PC-3 prostate
# [6] = system: UACC-257 melanoma
# [7] = system: BT-549 breast
# [8] = system: 786-0 renal
# [9] = system: SW-620 colon
# [10] = system: CAKI-1 renal
# [11] = system: HCT-116 colon
# [12] = system: SF-539 CNS
# [13] = system: NCI/ADR-RES ovarian
# [14] = system: OVCAR-5 ovarian
# [15] = system: SNB-75 CNS
# [16] = system: MCF7 breast
# [17] = system: SF-295 CNS
# [18] = system: HCT-15 colon
# [19] = system: T-47D breast
# [20] = system: NCI-H23 lung
# [21] = system: COLO 205 colon
# [22] = system: NCI-H522 lung
# [23] = system: LOX IMVI melanoma
# [24] = system: SK-MEL-28 melanoma
# [25] = system: ACHN renal
# [26] = system: NCI-H226 lung
# [27] = system: RPMI-8226 leukemia
# [28] = system: HOP-92 NSCLC
# [29] = system: RXF 393 renal
# [30] = system: EKVX NSCLC
# [31] = system: M14 melanoma
# [32] = system: HS 578T breast
# [33] = system: SN12C renal
# [34] = system: U251 CNS
# [35] = system: CCRF-CEM leukemia
# [36] = system: UO-31 renal
# [37] = system: IGROV1 ovarian
# [38] = system: K-562 leukemia
# [39] = system: HL-60(TB) leukemia
# [40] = system: A549 NSCLC
# [41] = system: TK-10 renal
# [42] = system: UACC-62 melanoma
# [43] = system: HOP-62 NSCLC
# [44] = system: OVCAR-4 ovarian
# [45] = system: A498 renal
# [46] = system: KM12 colon
# [47] = system: MALME-3M melanoma
# [48] = system: HT29 colon
# [49] = system: SK-OV-3 ovarian
# [50] = system: SR leukemia
# [51] = system: SK-MEL-2 melanoma
# [52] = system: DU-145 prostate
# [53] = system: NCI-H460 lung
# [54] = system: MOLT-4 leukemia
# [55] = system: MDA-MB-435
# [56] = system: SK-MEL-5 melanoma
# [57] = system: SF-268 CNS
structure (smiles),measurement,setting,value
Cc1ccc(C)c(COc2cc(NC(=O)c3ccc4c(c3)OCO4)ccc2N(C)S(C)(=O)=O)c1,GI50,[1],332 nM
same,TGI,[1],> 100000 nM
same,GI50,[2],231 nM
same,TGI,[2],798 nM
same,GI50,[3],132 nM
same,TGI,[3],397 nM
same,GI50,[4],286 nM
same,TGI,[4],> 100000 nM
same,GI50,[5],131 nM
same,TGI,[5],> 100000 nM
same,GI50,[6],1870 nM
same,TGI,[6],> 100000 nM
same,GI50,[7],374 nM
same,TGI,[7],> 100000 nM
same,GI50,[8],192 nM
same,GI50,[9],77.8 nM
same,TGI,[9],> 100000 nM
same,GI50,[10],160 nM
same,TGI,[10],> 100000 nM
same,GI50,[11],66.2 nM
same,TGI,[11],1120 nM
same,GI50,[12],118 nM
same,TGI,[12],790 nM
same,GI50,[13],56.2 nM
same,TGI,[13],407 nM
same,GI50,[14],513 nM
same,TGI,[14],> 100000 nM
same,GI50,[15],111 nM
same,TGI,[15],1180 nM
same,GI50,[16],71.6 nM
same,TGI,[16],> 100000 nM
same,GI50,[17],62.1 nM
same,TGI,[17],439 nM
same,GI50,[18],127 nM
same,TGI,[18],> 100000 nM
same,GI50,[19],807 nM
same,TGI,[19],> 100000 nM
same,GI50,[20],213 nM
same,TGI,[20],> 100000 nM
same,GI50,[21],257 nM
same,TGI,[21],816 nM
same,GI50,[22],81.5 nM
same,TGI,[22],424 nM
same,GI50,[23],79.3 nM
same,TGI,[23],> 100000 nM
same,GI50,[24],3740 nM
same,TGI,[24],> 100000 nM
same,GI50,[25],420 nM
same,TGI,[25],> 100000 nM
same,GI50,[26],904 nM
same,TGI,[26],> 100000 nM
same,GI50,[27],319 nM
same,TGI,[27],> 100000 nM
same,GI50,[28],2590 nM
same,TGI,[28],> 100000 nM
same,GI50,[29],128 nM
same,TGI,[29],403 nM
same,GI50,[30],466 nM
same,TGI,[30],> 100000 nM
same,GI50,[31],65.7 nM
same,TGI,[31],560 nM
same,GI50,[32],36.3 nM
same,TGI,[32],307 nM
same,GI50,[33],447 nM
same,TGI,[33],> 100000 nM
same,GI50,[34],238 nM
same,TGI,[34],> 46800 nM
same,GI50,[35],86.6 nM
same,TGI,[35],> 100000 nM
same,GI50,[36],348 nM
same,TGI,[36],> 100000 nM
same,GI50,[37],237 nM
same,TGI,[37],> 100000 nM
same,GI50,[38],44.6 nM
same,TGI,[38],> 100000 nM
same,GI50,[39],38.7 nM
same,TGI,[39],489 nM
same,GI50,[40],282 nM
same,TGI,[40],> 36900 nM
same,GI50,[41],402 nM
same,TGI,[41],> 100000 nM
same,GI50,[42],179 nM
same,TGI,[42],> 100000 nM
same,GI50,[43],570 nM
same,TGI,[43],> 100000 nM
same,GI50,[44],648 nM
same,TGI,[44],> 100000 nM
same,GI50,[45],122 nM
same,TGI,[45],853 nM
same,GI50,[46],77 nM
same,TGI,[46],1060 nM
same,GI50,[47],111 nM
same,TGI,[47],> 100000 nM
same,GI50,[48],114 nM
same,TGI,[48],2340 nM
same,GI50,[49],217 nM
same,TGI,[49],> 100000 nM
same,GI50,[50],45.7 nM
same,TGI,[50],> 100000 nM
same,GI50,[51],595 nM
same,GI50,[52],172 nM
same,TGI,[52],543 nM
same,GI50,[53],139 nM
same,TGI,[53],711 nM
same,GI50,[54],228 nM
same,TGI,[54],> 100000 nM
same,GI50,[55],24.8 nM
same,TGI,[55],71.8 nM
same,GI50,[56],172 nM
same,TGI,[56],1670 nM
same,GI50,[57],310 nM
same,TGI,[57],> 100000 nM

# — PubChem BioAssay (NCI)
